Like-named read-outs stand apart in the source and are kept apart here.
Key:
[1] = system: patient's PBMCs; conditions: 6 weeks after vaccination vs before treatment
Description: The above described method is used for monitoring an immune response in 2 melanoma patients that were treated by an immunotherapy based on a peptide vaccine consisting of the HLA-B^∗0702-restricted T cell epitope […] (aa97-111) (SEQ ID NO: 40) of the tumor-associated antigen NY-ESO 1. In order to evaluate whether or not patients would benefit from a corresponding peptide vaccination therapy, HLA genotyping is done to test for HLA-B^∗0702 and tumor biopsies are examined for high NY-ESO 1 expression.
(§1) Before the vaccination therapy is started, the method described herein above is applied to establish HLA- and TCR-specific gene expression profiles of the patient's PBMCs. Furthermore the tumor size/mass is determined by CT scan. During therapy, the patients received 1 mg of the HLA-B^∗0702-restricted peptide […] every 2 weeks for 6 doses.
(§2) In addition HLA-expression profiles are established from tumor biopsies that are taken from the patients 12 weeks after the last vaccination.

[2] = system: tumor
Description: as §1, §2

[3] = system: HLA-B∗0702
Text: as §2
For further investigation new biopsies of the tumors of both patients are taken for analysis of tumor antigen expression and the establishment of a HLA expression profile using the method of the present invention.

ATPMEAELARRSLAQ
increased expression of the TCR-β sequence V4.1 D2 J2.1 C2 ([1]; patient 1, PBMCs): 9.6 fold | increased expression of the TCR-α sequence V1.1 J23 C ([1]; patient 1, PBMCs, 1 mg peptide every 2 weeks for 6 doses): 10.3 fold | increased expression of the TCR-α sequence V1.1 J23 C ([1]; patient 2, PBMCs): 9.3 fold | increased expression of the TCR-β sequence V4.1 D2 J2.1 C2 ([1]; patient 2, PBMCs): 10.6 fold | tumor mass in the CT scan ([2]; both patients, along with the T cell response seen 6 weeks after vaccination): loss of the tumor mass | tumor in CT scan ([2]; patient 1, 12 weeks after vaccination): continuous tumor regression | tumor in CT scan ([2]; patient 2, 12 weeks after vaccination): growing again | HLA expression profile of tumor cells ([3]; patient 1, tumor biopsy 12 weeks after the last vaccination): normal HLA expression profile | expression of HLA-B∗0702 in tumor cells ([3]; patient 2, tumor biopsy 12 weeks after the last vaccination): completely lost | expression of isotypes of HLA class I and II ([3]; patients' PBMCs, all time points): expressed at normal levels
